According to paper PMC12603070, “A high-throughput screening approach to discover potential colorectal cancer chemotherapeutics: repurposing drugs to identify novel disruptors of 14-3-3 proteins” (Cell Death & Disease, 2025):
Structures can show the parent of a compound that is named as a salt. Where two headings read alike, the source gives them in different places.

Legend:
NIH-3T3 cells = assay: Hoechst/propidium iodide cell death assay in NIH-3T3; assay type: cell-based; conditions: for cytotoxicity at 20 µM: Mus musculus, NIH3T3, 24 h, read-out: Percentage of cell death % 24h NIH3t3
Description: (§1) A high-content imaging system (PerkinElmer; Operetta CLS), was used to quantify cell death and apoptosis by calculating the number of propidium iodide-positive cells relative to Hoechst-positive cells, and the number of Annexin V-positive cells relative to Hoechst-positive cells, respectively.

[1] = biological target: T1, 14-3-3ζ:BAD-112-136F interactions (Homo sapiens, UniProt P63104); assay: BRET sensor screen for disruption of 14-3-3ζ-Rluc8:BAD-112-136F-mCitrine in living NIH-3T3 cells; assay type: cell-based, murine; set-up: inhibition: dose or concentration left out as unconfirmed; conditions: NIH3T3, 3 h, read-out: BRET reduction on NIH-3T3; for inhibition: NIH-3T3 cells, hits from the primary screen; for inhibition at 20 µM: NIH-3T3 expressing BRET sensor, 3 h
T1 construct: expressed in transfected cells; host or cells: NIH-3T3 fibroblasts, bi-directional pBI-CMV1 plasmid
T1 sequence (P63104 1-245): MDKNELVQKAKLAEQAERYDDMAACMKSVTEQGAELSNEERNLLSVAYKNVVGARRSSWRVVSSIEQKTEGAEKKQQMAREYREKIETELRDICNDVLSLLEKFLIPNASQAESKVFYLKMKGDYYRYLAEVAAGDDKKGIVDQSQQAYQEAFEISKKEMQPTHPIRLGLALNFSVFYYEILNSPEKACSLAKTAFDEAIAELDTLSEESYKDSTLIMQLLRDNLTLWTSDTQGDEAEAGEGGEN
Method: The Z’-score, which evaluates the robustness of an HTS assay readout, was calculated according to standard protocols. For the HTS, 384-well plates were coated with 100 μg/mL poly-L-ornithine (Sigma, Missouri, United States; #P3655) overnight at 37 °C, followed by rinsing with sterilized water. NIH-3T3 cells were transfected with the BRET sensor two days prior to experimentation, followed by replating onto the pre-coated 384-well plates at a density of 20,000 cells/well. After 24 h of incubation at 37 °C, growth media was replaced by Krebs buffer (pH 7.4).

HT-29 cells = assay: Hoechst/propidium iodide cell death assay in HT-29; assay type: cell-based, human; conditions: Homo sapiens
Description: as §1

[2] = HT-29, 24 h, 20 µM, 24 h, read-out: Percentage of cell death % 24h HT-29
[3] = HT-29, 48 h, HT-29, 48h, 20 μM, read-out: Percentage of cell death % 48h, HT-29

SMILES | inhibition [1] [%] | inhibition at 20 µM [1] [%] | cytotoxicity at 20 µM (NIH-3T3 cells; 20 µM, 24 h) [%] | Percentage of cell death % 48h, NIH3T3 (NIH-3T3 cells) [%] | cytotoxicity at 20 µM (HT-29 cells; [2]) [%] | cytotoxicity at 20 µM (HT-29 cells; [3]) [%] | Percentage of cell death % 24h NIH3t3 (NIH-3T3 cells; 20 µM, 24 h) [%]
C=C[C@@H]1C[C@]1(NC(=O)[C@@H]1C[C@@H](Oc2ncc(OC)c3ccc(Cl)cc23)CN1C(=O)[C@@H](NC(=O)OC(C)(C)C)C(C)(C)C)C(=O)NS(=O)(=O)C1CC1 [Asunaprevir (BMS-650032), Asunaprevir] | 41.4 | 41.4 | 3.04 | 2.12 | 1.15 | 3.86 | 
Cc1cc(Nc2ncc(Cl)c(Nc3ccccc3S(=O)(=O)C(C)C)n2)c(OC(C)C)cc1C1CCNCC1 [LDK378] | 46.5 | 46.5 | 80.9 | 75.6563 | 92.1 | 89.8 | 
CC1(C)[C@@H](O)CC[C@]2(C)[C@H]3C(=O)C=C4[C@@H]5C[C@@](C)(C(=O)O)CC[C@]5(C)CC[C@@]4(C)[C@]3(C)CC[C@@H]12 [Enoxolone] | 42.9 | 42.9 | 4.15 | 0.6522 | 0.697 | 1.61 | 
c1ccc(-c2ccc(C(c3ccccc3)n3ccnc3)cc2)cc1 (stereo not drawn) [Bifonazole] | 32.1 | 32.1 | 0.428 | 0.5325 | 1.45 | 2.62 | 
C[C@H](CCC(=O)O)[C@H]1CC[C@H]2[C@@H]3[C@H](O)C[C@@H]4C[C@H](O)CC[C@]4(C)[C@H]3CC[C@]12C [Chenodeoxycholic Acid] | 31.3 | 31.3 | 0.372 | 0.2284 | 1.21 | 2.27 | 
Clc1ccc(COC(Cn2ccnc2)c2ccc(Cl)cc2Cl)cc1 (stereo not drawn) [Econazole nitrate] | 48.3 | 48.3 | 14.2 | 7.996 | 8.57 | 13 | 

Now from value to molecule, other results behind:

inhibition [1] [%] | inhibition at 20 µM [1] [%] | SMILES | cytotoxicity at 20 µM (NIH-3T3 cells; 20 µM, 24 h) [%] | Percentage of cell death % 48h, NIH3T3 (NIH-3T3 cells) [%] | cytotoxicity at 20 µM (HT-29 cells; [2]) [%] | cytotoxicity at 20 µM (HT-29 cells; [3]) [%] | Percentage of cell death % 24h NIH3t3 (NIH-3T3 cells; 20 µM, 24 h) [%]
36.4 | 36.4 | CC[C@H]1[C@@H](O)[C@@H]2[C@H](CC[C@]3(C)[C@@H]([C@H](C)CCC(=O)O)CC[C@@H]23)[C@@]2(C)CC[C@@H](O)C[C@@H]12 [Obeticholic Acid] | 1.16 | 0.273 | 0.566 | 1.41 | 
27.4 | 27.4 | CSc1ccc2c(c1)N(CCC1CCCCN1C)c1ccccc1S2 (stereo not drawn) [Thioridazine HCl] | 83.3 | 84.4863 | 1.72 | 16.7 | 
40.6 | 40.6 | NC(=O)N1CCC(CC(=O)N2CCC([C@H]3c4ncc(Br)cc4CCc4cc(Cl)cc(Br)c43)CC2)CC1 [Lonafarnib] | 36.3 | 40.7575 | 1.12 | 1.7 | 
25.6 | 25.6 | Clc1ccc(C(c2ccccc2Cl)C(Cl)Cl)cc1 (stereo not drawn) [Mitotane (Lsodren), Mitotane] | 25.3 | 5.575 | 0.553 | 1.62 | 
26 | 26 | C=CC[C@@H]1/C=C(\C)C[C@H](C)C[C@H](OC)[C@H]2O[C@@](O)(C(=O)C(=O)N3CCCC[C@H]3C(=O)O[C@H](/C(C)=C/[C@@H]3CC[C@@H](O)[C@H](OC)C3)[C@H](C)[C@@H](O)CC1=O)[C@H](C)C[C@@H]2OC [Tacrolimus (FK506), Tacrolimus] | 0.808 | 0.523 | 0.958 | 2.46 | 
30.9 | 30.9 | Cc1c(C)c2c(c(C)c1O)CCC(C)(COc1ccc(CC3SC(=O)NC3=O)cc1)O2 (stereo not drawn) [Troglitazone] | 0.791 | 0.3187 | 0.272 | 0.925 | 
48.7 | 48.7 | Clc1ccc(COC(Cn2ccnc2)c2ccc(Cl)cc2Cl)c(Cl)c1 (stereo not drawn) [Miconazole] |  | 3.437 | 2.78 | 5.75 | 6.07
